From patent US4352880A (priority 1979, dated 1982)
“And” between values parts separate entries of the source, which are not always exact repeats. Identical values can stand only once. Like-named read-outs stand apart in the source and are kept apart here.

Assays:
physchem [1] = details: ta-1538 agar
S. typhimurium TA1535 [2] = system: S. typhimurium TA1535
physchem [3] = details: agar
S. typhimurium TA1535 [4] = system: S. typhimurium TA1535; remark: listed apart in the source
physchem [5] = details: minimal medium, phosphate buffer, pH 7
[6] = Diffusion bioassay for mutagenicity with microsomal activation (procarcinogens); details: agar plates
S. typhimurium TA1535 [7] = experiment: as above; details: for Cmut (minimal mutagenic concentration): brackets: one standard deviation; for Cmut /co /s: from figure; for Cmut threshold value (mean): diffusion method, metabolic activation, brackets: 90% confidence intervals
S. typhimurium TA1535 [8] = experiment: Homogeneous bioassay with microsomal activation, minimum mutagenic concentration; details: metabolic activation, 90% confidence intervals
[9] = half-lifetime .tau.1/2 from diffusion bioassay

CC(=O)Nc1ccc2c(c1)Cc1ccccc1-2 [2-AAF, a-acetyl amino fluorene]
half-life (physchem [1]): 0.446 h

CC(=O)OCN(C)N=O [AcDMN, Acetoxydimethylnitrosoamine]
C mut^hom threshold value (S. typhimurium TA1535 [2]): 1.01 ± 1.48 | half-life (physchem [3]; .tau.1/2 Parametrically): 34.1 h | half-life (physchem [3]; [9]): 19.1 h | Cmut threshold value (mean) (S. typhimurium TA1535 [4]): 1.7(1.07, 3.53) μg/ml | half-lifetime .tau.1/2 from diffusion bioassay (S. typhimurium TA1535 [4]; agar): 34.5 h | half-life (physchem [5]): 30.4 h

CCOS(C)(=O)=O [EMS, ethyl-methane-sulfonate]
C mut^hom threshold value (S. typhimurium TA1535 [2]): 16.85 ± 10.85 | half-life (physchem [3]; .tau.1/2 (Table 16)): 14.5 h | Cmut threshold value (mean) (S. typhimurium TA1535 [4]): 20.3(13.17, 26.97) μg/ml | half-life (physchem [5]): 13.8 h

COc1ccc2nc3cc(Cl)ccc3c(NCCCNCCCl)c2c1 [ICR-191]
half-life (physchem [1]): 2.09 h | rmut (radius of mutagenic zone) (TA-1538; Co 10 mg/ml): 0.73 cm | rmut (radius of mutagenic zone) (TA-1538; Co 100 mg/ml): 1.16 cm | rmut (radius of mutagenic zone) (TA-1538; Co 1000 mg/ml): 1.52 cm

CN(N=O)C(N)=O [MNU, N-Methyl-N-nitrosourea]
C mut^hom threshold value (S. typhimurium TA1535 [2]): 0.116 ± 2.52 | half-life (physchem [3]; [9]): 0.628 h | Cmut threshold value (mean) (S. typhimurium TA1535 [4]): 0.27(0.13, 0.45) μg/ml | half-life (physchem [5]): 0.599 h

O=NN1CCOCC1 [NM, N-nitrosomorpholine]
half-life [6]: 6 h | rmut (radius of mutagenic zone) (S. typhimurium TA1535 [7]; 0.25 μl/disc, R = 4.25, TA 1535): 1.31 ± 0.12 cm and 1.31 ± 0.1 cm | rmut /R (S. typhimurium TA1535 [7]; 0.25 μl, co /s 0.29 mg/ml, R = 4.25 cm): 0.3 ± 0.02 | Cmut (minimal mutagenic concentration) (S. typhimurium TA1535 [7]; 0.25 μl, co /s 0.29 mg/ml): 0.64(0.436, 0.785) μg/ml | Cmut /co /s (S. typhimurium TA1535 [7]; 0.25 μl, co /s 0.29 mg/ml): 2.2 × 10^-3 | rmut (radius of mutagenic zone) (S. typhimurium TA1535 [7]; 2.5 μl/disc, R = 4.25, TA 1535): 2.25 ± 0.12 cm | rmut /R (S. typhimurium TA1535 [7]; 2.5 μl, co /s 0.91 mg/ml, R = 4.25 cm): 0.52 ± 0.02 | Cmut (minimal mutagenic concentration) (S. typhimurium TA1535 [7]; 2.5 μl, co /s 0.91 mg/ml): 0.699(0.465, 0.902) μg/ml | Cmut /co /s (S. typhimurium TA1535 [7]; 2.5 μl, co /s 0.91 mg/ml): 2.4 × 10^-4 | rmut (radius of mutagenic zone) (S. typhimurium TA1535 [7]; 25 μl/disc, R = 4.25, TA 1535): 3.6 ± 0.12 cm and 3.6 ± 0.3 cm | rmut /R (S. typhimurium TA1535 [7]; 25 μl, co /s 29.1 mg/ml, R = 4.25 cm): 0.84 ± 0.07 | Cmut (minimal mutagenic concentration) (S. typhimurium TA1535 [7]; 25 μl, co /s 29.1 mg/ml): 0.276(0.119, 0.505) μg/ml | Cmut /co /s (S. typhimurium TA1535 [7]; 25 μl, co /s 29.1 mg/ml): 9.5 × 10^-6 | Cmut threshold value (mean) (S. typhimurium TA1535 [7]): 0.54(0.23, 0.80) μg/ml | C mut^hom threshold value (S. typhimurium TA1535 [8]): 0.7 ± 3.6

O=NN1CCCC1 [NP, nitrosopyrrolidine]
half-life [6]: 5.1 h | rmut (radius of mutagenic zone) (S. typhimurium TA1535 [7]; 0.25 μl/disc, R = 4.25 cm, 3 days): 1.6 ± 0.18 cm | Cmut (minimal mutagenic concentration) (S. typhimurium TA1535 [7]; 0.25 μl, co /s 0.27 mg/ml): 0.233(0.143, 0.344) μg/ml | rmut (radius of mutagenic zone) (S. typhimurium TA1535 [7]; 2.5 μl/disc, R = 4.25 cm, 3 days): 2.5 ± 0.28 cm | Cmut (minimal mutagenic concentration) (S. typhimurium TA1535 [7]; 2.5 μl, co /s 2.71 mg/ml): 0.233(0.125, 0.449) μg/ml | rmut (radius of mutagenic zone) (S. typhimurium TA1535 [7]; 10 μl/disc, R = 4.25 cm, 3 days): 3.43 ± 0.32 cm and 3.4 ± 0.32 cm | Cmut (minimal mutagenic concentration) (S. typhimurium TA1535 [7]; 10 μl, co /s 10.85 mg/ml): 0.097(0.048, 0.212) μg/ml | rmut (radius of mutagenic zone) (S. typhimurium TA1535 [7]; 25 μl/disc, R = 4.25 cm, 3 days): 3.7 ± 0.31 cm | Cmut (minimal mutagenic concentration) (S. typhimurium TA1535 [7]; 25 μl, co /s 27.1 mg/ml): 0.108(0.082, 0.25) μg/ml | Cmut threshold value (mean) (S. typhimurium TA1535 [7]): 0.17(0.10, 0.37) μg/ml | C mut^hom threshold value (S. typhimurium TA1535 [8]): 0.58 ± 4.8
